According to patent US20140094424A1, “MICROBICIDAL COMPOSITIONS AND METHODS OF PRODUCTION USE THEREOF” (priority 2011, published 2014):
Read-outs that look alike come from different tables or passages of the source.

Legend:
[1] = system: Ralstonia pickettii (AU); assay type: cell-based
Protocol: (§1) The stock organisms were thawed and subbed prior to beginning the MBC test. Molds were subbed to SDA plates one week before, and the bacteria were subbed to TAT agar plates 24 hours prior to the start of the test. All plates were incubated at 32 degrees C.
Each bacterial organism was inoculated into 40 ml sterile saline in a centrifuge tube to create a density of MacFarland #1. Two serial dilutions of 1:100 were then made, resulting in 10^−2 and 10^−4 concentrations. Each dilution was vortexed before it was sampled, and sterile Eppendorf pipette tips were used to make each transfer. The 10^−4 dilution was spiral plated to yield the initial inoculum concentration.
(§2) MBC trays were set up with the prepared test reagent. Using a Matrix pipettor, 100 μl aliquots of reagent were distributed into the wells, diluting the amount of preservative from 100% to 10% increments, using unpreserved reagent as the diluent. In one row, 100% non-preserved reagent acted as a positive control and served as a benchmark for a full mat of growth. In well #12H, 100 μl unpreserved reagent was pipetted, and this well was not inoculated with organisms, as it served as the negative control. Once all of the trays were prepared, the prepared bacteria/mold suspensions were poured into the MBC inoculating trays. These were placed onto the reagent trays, and 0.01 ml inoculum was introduced into the 100 μl of reagent in each well.
(§3) This was done by dipping a sterile cotton swab into each well, and absorbing all of the liquid in the well. The swab was rolled onto a TAT agar plate ensuring that the entire swab touches the agar. Plates ware incubated at 32 degrees C. for 48 hours to 7 days, depending on the organism. Observations for growth were performed by a scoring matrix using + for a full mat, +/− for some growth, a numerical value for an actual colony count, and—for no growth.
(§4) Below are tables that contain the data obtained in Example 1. The MBC test is scored by (+) indicating a full grown mat of organisms, equivalent to the organisms in the unpreserved reagent. (+/−) indicates there is some kill evident disturbing that mat or bringing the quantities down to an almost countable level. An actual number is the actual number of colonies growing at that concentration of preservative. (−) indicates no growth found. The MBC trays were stored at room temperature for the entire test.
(§5) The materials and methods and analysis of the MBC test were the same as in Example 1.

[2] = system: Penicillium notatum-KMO (R); assay: MBC (minimum bactericidal concentration) test in Wash NEXT reagent; assay type: cell-based; conditions: for total kill at % preservative (MBC): at 14 days
Protocol: as §1
For the molds, each organism was inoculated into 40 ml sterile saline in a centrifuge tube to create a density of MacFarland #5. Two serial dilutions of 1:100 were then made, resulting in 10^−2 and 10^−4 concentrations. Each dilution was vortexed before it was sampled, and sterile Eppendorf pipette tips were used to make each transfer. The 10^−4 dilution was spiral plated to yield the initial inoculum concentration.
as §2, §3, §4, §5

## [N-]=[N+]=[N-] [Sodium Azide, sodium azide]
[1]; 10% preservative, 8 hour
  MBC test growth score: +
[1]; 10% preservative, 24 hour
  MBC test growth score: +
[1]; 10% preservative, 48 hour
  MBC test growth score: +
[1]; 10% preservative, 72 hour
  MBC test growth score: +
[1]; 20% preservative, 8 hour
  MBC test growth score: +
[1]; 20% preservative, 24 hour
  MBC test growth score: +
[1]; 20% preservative, 48 hour
  MBC test growth score: +
[1]; 20% preservative, 72 hour
  MBC test growth score: +/−
[1]; 30% preservative, 8 hour
  MBC test growth score: +
[1]; 30% preservative, 24 hour
  MBC test growth score: +
[1]; 30% preservative, 48 hour
  MBC test growth score: +/−
[1]; 30% preservative, 72 hour
  MBC test growth score: +/−
[1]; 40% preservative, 8 hour
  MBC test growth score: +
[1]; 40% preservative, 24 hour
  MBC test growth score: +
[1]; 40% preservative, 48 hour
  MBC test growth score: +/−
[1]; 40% preservative, 72 hour
  MBC test growth score: +/−
[1]; 50% preservative, 8 hour
  MBC test growth score: +
[1]; 50% preservative, 24 hour
  MBC test growth score: +
[1]; 50% preservative, 48 hour
  MBC test growth score: +/−
[1]; 50% preservative, 72 hour
  MBC test growth score: +/−
[1]; 60% preservative, 8 hour
  MBC test growth score: +
[1]; 60% preservative, 24 hour
  MBC test growth score: +
[1]; 60% preservative, 48 hour
  MBC test growth score: +/−
[1]; 60% preservative, 72 hour
  MBC test growth score: 10
[1]; 70% preservative, 8 hour
  MBC test growth score: +
[1]; 70% preservative, 24 hour
  MBC test growth score: +
[1]; 70% preservative, 48 hour
  MBC test growth score: +/−
[1]; 70% preservative, 72 hour
  MBC test growth score: 8
[1]; 80% preservative, 8 hour
  MBC test growth score: +
[1]; 80% preservative, 24 hour
  MBC test growth score: +/−
[1]; 80% preservative, 48 hour
  MBC test growth score: +/−
[1]; 80% preservative, 72 hour
  MBC test growth score: 7
[1]; 90% preservative, 8 hour
  MBC test growth score: +
[1]; 90% preservative, 24 hour
  MBC test growth score: +/−
[1]; 90% preservative, 48 hour
  MBC test growth score: +/−
[1]; 90% preservative, 72 hour
  MBC test growth score: 4
[1]; 100% preservative, 8 hour
  MBC test growth score: +
[1]; 100% preservative, 24 hour
  MBC test growth score: +/−
[1]; 100% preservative, 48 hour
  MBC test growth score: +/−
[1]; 100% preservative, 72 hour
  MBC test growth score: 2
[1]; at 72 hours, listed as Na Azide
  total kill at % preservative (MBC): No kill @ 100%
[2]; 10%, 8 hour
  growth: +
[2]; 10%, 24 hour
  growth: +
[2]; 10%, 48 hour
  growth: +/−
[2]; 10%, 72 hour
  growth (number of organisms counted): 24
[2]; 10%, 7 day
  growth (number of organisms counted): 20
[2]; 10%, 14 day
  growth (number of organisms counted): 14
[2]; 20%, 8 hour
  growth: +
[2]; 20%, 24 hour
  growth: +
[2]; 20%, 48 hour
  growth: +/−
[2]; 20%, 72 hour
  growth (number of organisms counted): 22
[2]; 20%, 7 day
  growth (number of organisms counted): 19
[2]; 20%, 14 day
  growth (number of organisms counted): 11
[2]; 30%, 8 hour
  growth: +
[2]; 30%, 24 hour
  growth: +
[2]; 30%, 48 hour
  growth: +/−
[2]; 30%, 72 hour
  growth (number of organisms counted): 22
[2]; 30%, 7 day
  growth (number of organisms counted): 19
[2]; 30%, 14 day
  growth (number of organisms counted): 8
[2]; 40%, 8 hour
  growth: +
[2]; 40%, 24 hour
  growth: +
[2]; 40%, 48 hour
  growth: +/−
[2]; 40%, 72 hour
  growth (number of organisms counted): 18
[2]; 40%, 7 day
  growth (number of organisms counted): 15
[2]; 40%, 14 day
  growth (number of organisms counted): 6
[2]; 50%, 8 hour
  growth: +
[2]; 50%, 24 hour
  growth: +
[2]; 50%, 48 hour
  growth: +/−
[2]; 50%, 72 hour
  growth (number of organisms counted): 15
[2]; 50%, 7 day
  growth (number of organisms counted): 12
[2]; 50%, 14 day
  growth: −
[2]; 60%, 8 hour
  growth: +
[2]; 60%, 24 hour
  growth: +
[2]; 60%, 48 hour
  growth: +/−
[2]; 60%, 72 hour
  growth (number of organisms counted): 13
[2]; 60%, 7 day
  growth (number of organisms counted): 10
[2]; 60%, 14 day
  growth: −
[2]; 70%, 8 hour
  growth: +
[2]; 70%, 24 hour
  growth: +
[2]; 70%, 48 hour
  growth: +/−
[2]; 70%, 72 hour
  growth (number of organisms counted): 11
[2]; 70%, 7 day
  growth (number of organisms counted): 9
[2]; 70%, 14 day
  growth: −
[2]; 80%, 8 hour
  growth: +
[2]; 80%, 24 hour
  growth: +
[2]; 80%, 48 hour
  growth: +/−
[2]; 80%, 72 hour
  growth (number of organisms counted): 9
[2]; 80%, 7 day
  growth (number of organisms counted): 6
[2]; 80%, 14 day
  growth: −
[2]; 90%, 8 hour
  growth: +
[2]; 90%, 24 hour
  growth: +
[2]; 90%, 48 hour
  growth: +/−
[2]; 90%, 72 hour
  growth (number of organisms counted): 7
[2]; 90%, 7 day
  growth (number of organisms counted): 4
[2]; 90%, 14 day
  growth: −
[2]; 100%, 8 hour
  growth: +
[2]; 100%, 24 hour
  growth: +
[2]; 100%, 48 hour
  growth: +/−
[2]; 100%, 72 hour
  growth (number of organisms counted): 6
[2]; 100%, 7 day
  growth (number of organisms counted): 3
[2]; 100%, 14 day
  growth: −
[2]
  total kill at % preservative (MBC): had total kill at 50% preservative at 14
[2]; listed as Na Azide
  total kill at % preservative (MBC): Total kill @ 50%
